According to article PMC7156458, “Synthetic biology based construction of biological activity-related library of fungal decalin-containing diterpenoid pyrones” (Nature Communications, 2020):
Like-named read-outs stand apart in the source and are kept apart here.

How the values were obtained:
Format in all cases: cell-based
[1] = system: DL1 cells; test: cytotoxicity in Drosophila DL1 cells; settings: DL1 cells; for % viability, viability 1: replicate 1, relative to DMSO 1%; for % viability, viability 2: replicate 2, relative to DMSO 1%; for IC50: cytotoxicity
Method: (§1) We screened the DDPs on the Drosophila assay system for cytotoxicity, inhibitory activity of innate immune signalling and insecticidal activity. The cytotoxicity of the DDPs was evaluated using two cell lines, embryonic macrophage-derived DL1 cells[58]–[60] and larval blood cell-derived l(2)mbn cells, and their IC50 values are listed in Supplementary Table 23.

[2] = system: l(2)mbn cells; test: cytotoxicity in Drosophila l(2)mbn cells; settings: for Luminescence Raw1: replicate 1; for % viability, viability 1: replicate 1, relative to DMSO 1%; for Luminescence Raw2: replicate 2; for % viability, viability 2: replicate 2, relative to DMSO 1%
Method: as §1

[3] = system: human immunodeficiency virus-1 (HIV-1); test: anti-HIV MAGI assay; settings: Human immunodeficiency virus 1, MAGI, average of numeric determinations
Text: We examined the inhibitory activities of DDPs against various species of bacteria (both gram-negative and gram-positive bacteria), fungi and viruses. […] In contrast, preliminary screening of the DDPs for anti-viral agents with hepatitis B virus (HBV), measles virus (MV), Epstein-Barr virus (EBV), herpes simplex virus (HSV) and human immunodeficiency virus-1 (HIV-1) indicated their selective inhibition of HIV.

C=C1CCC2C(C)(CCC=C(C)C)C(O)CCC2(C)C1Cc1c(OC)oc(C)c(C)c1=O (stereo not drawn) [Compound 15, viridoxin A hydrolysate]
Luminescence Raw1 ([1]; 0.04 µM, replicate 1): 2784909 | % viability, viability 1 ([1]; 0.04 µM): 203.06% | Luminescence Raw2 ([1]; 0.04 µM, replicate 2): 3009267 | % viability, viability 2 ([1]; 0.04 µM): 219.419% | Luminescence Raw1 ([1]; 0.2 µM, replicate 1): 2743429 | % viability, viability 1 ([1]; 0.2 µM): 200.035% | Luminescence Raw2 ([1]; 0.2 µM, replicate 2): 2853442 | % viability, viability 2 ([1]; 0.2 µM): 208.057% | Luminescence Raw1 ([1]; 1 µM, replicate 1): 2896366 | % viability, viability 1 ([1]; 1 µM): 211.186% | Luminescence Raw2 ([1]; 1 µM, replicate 2): 3157521 | % viability, viability 2 ([1]; 1 µM): 230.228% | Luminescence Raw1 ([1]; 4 µM, replicate 1): 726344 | % viability, viability 1 ([1]; 4 µM): 52.9608% | Luminescence Raw2 ([1]; 4 µM, replicate 2): 1230470 | % viability, viability 2 ([1]; 4 µM): 89.7188% | Luminescence Raw1 ([1]; 10 µM, replicate 1): 281027 | % viability, viability 1 ([1]; 10 µM): 20.4909% | Luminescence Raw2 ([1]; 10 µM, replicate 2): 344848 | % viability, viability 2 ([1]; 10 µM): 25.1443% | Luminescence Raw1 ([1]; 20 µM, replicate 1): 282109 | % viability, viability 1 ([1]; 20 µM): 20.5698% | Luminescence Raw2 ([1]; 20 µM, replicate 2): 296532 | % viability, viability 2 ([1]; 20 µM): 21.6214% | IC50 ([1]; average±SEM): 6.1 ± 1.57 µM | IC50 ([1]; read-out: IC50 (1), replicate 1): 4.53 µM | IC50 ([1]; read-out: IC50 (2), replicate 2): 7.66 µM | IC50 ([1]; read-out: IC50 Average, average of two replicates): 6.1 µM | Luminescence Raw1 ([2]; 0.04 µM): 5571583 | % viability, viability 1 ([2]; 0.04 µM): 88.7303% | Luminescence Raw2 ([2]; 0.04 µM): 5591430 | % viability, viability 2 ([2]; 0.04 µM): 89.0464% | Luminescence Raw1 ([2]; 0.2 µM): 6221854 | % viability, viability 1 ([2]; 0.2 µM): 99.0862% | Luminescence Raw2 ([2]; 0.2 µM): 5568336 | % viability, viability 2 ([2]; 0.2 µM): 88.6786% | Luminescence Raw1 ([2]; 1 µM): 6094827 | % viability, viability 1 ([2]; 1 µM): 97.0632% | Luminescence Raw2 ([2]; 1 µM): 5439516 | % viability, viability 2 ([2]; 1 µM): 86.6271% | Luminescence Raw1 ([2]; 4 µM): 5005443 | % viability, viability 1 ([2]; 4 µM): 79.7142% | Luminescence Raw2 ([2]; 4 µM): 4514031 | % viability, viability 2 ([2]; 4 µM): 71.8882% | Luminescence Raw1 ([2]; 10 µM): 362955 | % viability, viability 1 ([2]; 10 µM): 5.78% | Luminescence Raw2 ([2]; 10 µM): 319326 | % viability, viability 2 ([2]; 10 µM): 5.085% | Luminescence Raw1 ([2]; 20 µM): 109116 | % viability, viability 1 ([2]; 20 µM): 1.738% | Luminescence Raw2 ([2]; 20 µM): 229184 | % viability, viability 2 ([2]; 20 µM): 3.65% | IC50 ([2]; cytotoxicity, average±SEM): 5.23 ± 0.19 µM | IC50 ([2]; read-out: IC50 (1), cytotoxicity, replicate 1): 5.42 µM | IC50 ([2]; read-out: IC50 (2), cytotoxicity, replicate 2): 5.04 µM | IC50 ([2]; read-out: IC50 Average, cytotoxicity, average of two replicates): 5.23 µM | EC50 ([3]; read-out: Avg. EC50 (nM), anti-HIV): 8.51 nM

C=C1CCC2C(C)(CCC=C(C)C)C(O)CCC2(C)C1Cc1c(O)c(C)c(C)oc1=O (stereo not drawn) [Compound 4]
Luminescence Raw1 ([1]; 0.04 µM, replicate 1): 2757856 | % viability, viability 1 ([1]; 0.04 µM): 201.087% | Luminescence Raw2 ([1]; 0.04 µM, replicate 2): 3026942 | % viability, viability 2 ([1]; 0.04 µM): 220.707% | Luminescence Raw1 ([1]; 0.2 µM, replicate 1): 2720705 | % viability, viability 1 ([1]; 0.2 µM): 198.378% | Luminescence Raw2 ([1]; 0.2 µM, replicate 2): 3168342 | % viability, viability 2 ([1]; 0.2 µM): 231.017% | Luminescence Raw1 ([1]; 1 µM, replicate 1): 2448745 | % viability, viability 1 ([1]; 1 µM): 178.548% | Luminescence Raw2 ([1]; 1 µM, replicate 2): 2704113 | % viability, viability 2 ([1]; 1 µM): 197.168% | Luminescence Raw1 ([1]; 4 µM, replicate 1): 345570 | % viability, viability 1 ([1]; 4 µM): 25.197% | Luminescence Raw2 ([1]; 4 µM, replicate 2): 345209 | % viability, viability 2 ([1]; 4 µM): 25.1707% | Luminescence Raw1 ([1]; 10 µM, replicate 1): 299777 | % viability, viability 1 ([1]; 10 µM): 21.858% | Luminescence Raw2 ([1]; 10 µM, replicate 2): 341603 | % viability, viability 2 ([1]; 10 µM): 24.9077% | Luminescence Raw1 ([1]; 20 µM, replicate 1): 287878 | % viability, viability 1 ([1]; 20 µM): 20.9904% | Luminescence Raw2 ([1]; 20 µM, replicate 2): 302301 | % viability, viability 2 ([1]; 20 µM): 22.0421% | IC50 ([1]; average of two replicates, read-out: IC50 Average): 1.54 µM | IC50 ([1]; average±SEM, read-out: IC50): 1.54 ± 0.08 µM | IC50 ([1]; replicate 1, read-out: IC50 (1)): 1.61 µM | IC50 ([1]; replicate 2, read-out: IC50 (2)): 1.46 µM | Luminescence Raw1 ([2]; 0.04 µM): 5839335 | % viability, viability 1 ([2]; 0.04 µM): 92.9944% | Luminescence Raw2 ([2]; 0.04 µM): 5201728 | % viability, viability 2 ([2]; 0.04 µM): 82.8402% | Luminescence Raw1 ([2]; 0.2 µM): 5720253 | % viability, viability 1 ([2]; 0.2 µM): 91.0979% | Luminescence Raw2 ([2]; 0.2 µM): 5444207 | % viability, viability 2 ([2]; 0.2 µM): 86.7018% | Luminescence Raw1 ([2]; 1 µM): 5427969 | % viability, viability 1 ([2]; 1 µM): 86.4432% | Luminescence Raw2 ([2]; 1 µM): 5886607 | % viability, viability 2 ([2]; 1 µM): 93.7472% | Luminescence Raw1 ([2]; 4 µM): 5612720 | % viability, viability 1 ([2]; 4 µM): 89.3854% | Luminescence Raw2 ([2]; 4 µM): 6637959 | % viability, viability 2 ([2]; 4 µM): 105.713% | Luminescence Raw1 ([2]; 10 µM): 900951 | % viability, viability 1 ([2]; 10 µM): 14.3481% | Luminescence Raw2 ([2]; 10 µM): 1318179 | % viability, viability 2 ([2]; 10 µM): 20.9927% | Luminescence Raw1 ([2]; 20 µM): 296971 | % viability, viability 1 ([2]; 20 µM): 4.729% | Luminescence Raw2 ([2]; 20 µM): 325456 | % viability, viability 2 ([2]; 20 µM): 5.183% | IC50 ([2]; cytotoxicity, average of two replicates, read-out: IC50 Average): 6.44 µM | IC50 ([2]; cytotoxicity, average±SEM, read-out: IC50): 6.44 ± 0.94 µM | IC50 ([2]; cytotoxicity, replicate 1, read-out: IC50 (1)): 5.5 µM | IC50 ([2]; cytotoxicity, replicate 2, read-out: IC50 (2)): 7.39 µM | EC50 ([3]; anti-HIV, read-out: Avg. EC50): 592 nM
